Reference: article PMC10840477 (Acta Pharmaceutica Sinica. B, 2023)
Each block holds one compound with its values, some of them ahead of it.

Experiments:
ICR mice [1] = assay: Forced swimming test; type: in vivo, mouse; conditions: p.o. 20 mg/kg, positive control, final 4 min of 6 min test
ICR mice [2] = assay: Tail suspension test; type: in vivo, mouse; conditions: p.o. 20 mg/kg, positive control, final 4 min of 6 min test
P2Y12 = P2Y12 (Homo sapiens, UniProt Q9H244); assay: P2Y12 β-Arrestin recruitment assay; type: cell-based; conditions: at similar concentrations as TP1; antagonist mode, n = 2
Chain of P2Y12 (Q9H244 whole entry): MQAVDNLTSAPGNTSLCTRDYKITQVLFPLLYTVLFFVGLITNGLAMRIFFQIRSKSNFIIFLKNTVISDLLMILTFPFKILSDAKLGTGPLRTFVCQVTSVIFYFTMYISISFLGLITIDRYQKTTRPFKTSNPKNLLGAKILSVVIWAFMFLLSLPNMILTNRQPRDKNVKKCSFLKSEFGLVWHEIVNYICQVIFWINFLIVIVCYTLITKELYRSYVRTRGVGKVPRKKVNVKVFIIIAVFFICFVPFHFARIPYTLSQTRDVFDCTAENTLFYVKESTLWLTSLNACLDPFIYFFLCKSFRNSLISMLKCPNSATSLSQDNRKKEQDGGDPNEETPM

ICR mice [3] = assay: In vivo acute pulmonary thrombosis; design: species or system mouse; conditions: three days, positive control

Structure (SMILES): CNCCC(Oc1ccc(C(F)(F)F)cc1)c1ccccc1 (stereo not drawn) [fluoxetine]
- Decrease of immobility time, forced swimming test (ICR mice [1]): 42.52 ± 9.96 s
- Decrease of immobility time, tail suspension test (ICR mice [2]): 30.01 ± 7.22 s

- Inhibitory effects against P2Y12 activation (P2Y12): did not display inhibitory effects
Structure (SMILES): CC(C)=CCC[C@](C)(O[C@@H]1O[C@H](CO)[C@@H](O)[C@H](O)[C@H]1O)[C@H]1CC[C@]2(C)[C@@H]1[C@H](O)C[C@@H]1[C@@]3(C)CC[C@H](O)C(C)(C)[C@@H]3[C@@H](O[C@@H]3O[C@H](CO)[C@@H](O)[C@H](O)[C@H]3O)C[C@]12C [ginsenoside Rg1]

Structure (SMILES): COC(=O)[C@H](c1ccccc1Cl)N1CCc2sccc2C1 [clopidogrel]
- Thrombus formation in the lung, effect relative to ginsentide TP1 (ICR mice [3]; oral clopidogrel 50 mg/kg): comparable

- Inhibitory effects against P2Y12 activation (P2Y12): did not display inhibitory effects
Structure (SMILES): CC(C)=CCC[C@](C)(O[C@@H]1O[C@H](CO[C@@H]2O[C@H](CO)[C@@H](O)[C@H](O)[C@H]2O)[C@@H](O)[C@H](O)[C@H]1O)[C@H]1CC[C@]2(C)[C@@H]1[C@H](O)C[C@@H]1[C@@]3(C)CC[C@H](O[C@@H]4O[C@H](CO)[C@@H](O)[C@H](O)[C@H]4O[C@@H]4O[C@H](CO)[C@@H](O)[C@H](O)[C@H]4O)C(C)(C)[C@@H]3CC[C@]12C [ginsenoside Rb1]

Structure (SMILES): CC(=O)Oc1ccccc1C(=O)O [aspirin]
- Thrombus formation in the lung, effect relative to ginsentide TP1 (ICR mice [3]; oral aspirin 100 mg/kg): comparable
